Laboratory results taken from patent publication US20110123483A1, “HMGB1 FOR CANCER TREATMENT” (DEUTSCHES KREBSFORSCHUNGSZENTRUM, priority 2009, published 2011).
“Also recorded” adds a separate entry of the source.

Assays:
Assay type in all cases: cell-based, human
U251 MG cells = experiment: ROS measurement by DCF fluorescence and FACS analysis; details: 40 nM, 24 h (FIG. 3A)
Description: For measurement of reactive oxygen species (ROS) and mitochondrial membrane potential (MMP) 1.5×10^6 U251 MG cells were seeded in 6 cm plates, treated with 40 nM rhHMGB1 for 24 h and incubated with the fluorescent DiOC6 (3,3′-dihexyloxacarbocyanine iodide, 40 nmol/ll, Sigma Chemical Co., St. Louis, Mo.) or with the fluorescent H2DCF-DA (dichlorodihydrofluorescein diacetate, 10 μM, Invitrogen) for 1 h at 37° C., respectively. The cells were trypsinized and centrifuged at 2,000 rpm for 5 min at 4° C. The supernatant was discarded and the pellet was washed 2× with sterile Dulbecco's PBS containing 0.1% fetal calf serum on ice and again centrifuged at 2,000 rpm for 5 min at 4° C. The pellet was resuspended in 500 μl sterile Dulbecco's PBS on ice. Oxidation of H2DCF to DCF by ROS and DiOC6 accumulation in mitochondria were measured immediately at FL-1 by flow cytometry using a FACScalibur (Beckton Dickinson, Heidelberg, Germany). Cell cycle was determined by measurement of priopidiumiodide (PI)-uptake of the cells according to standard procedures. Briefly, the cells were harvested and washed twice in sterile Dulbecco's PBS on ice, spun down at 2,000 rpm for 5 min at 4° C. and fixed with 70% ethanol for 30 min at 4° C. Contaminating RNA was eliminated by treatment with 100 μg/ml of RNase A, then 50 μg/ml PI was added and DNA content was measured immediately at FI-2. […]

pseudo rho zero cells = experiment: Survival of pseudo rho zero cells by crystal violet analysis; details: cells devoid of intact mitochondrial DNA
Description: U251 glioblastoma cells and non-immortalized human astrocytic cells (ScienCell, USA) were maintained in DMEM (Life Technologies) containing 10% FCS, 4.5 g/L glucose, glutamine, 110 mg/L sodium pyruvate, and 1% penicillin-streptomycin (Life Technologies) and in astrocyte medium (ScienCell) containing 2% FBS (fetal bovine serum) and 1% penicillin-streptomycin at 37° C. and 5% CO2. For the generation of pseudo rho zero cells (0.0), U251 MG cells were treated with low dose (250 ng/ml) ethidiumbromide for 3 months. The cells were supplemented with DMEM (10% FCS, 1% P/S) containing 50 μg/ml L-pyruvate and 5 mg/ml uridine (King and Attardi, 1989).
20,000 U251MG glioblastoma cells or human astrocytic cells (ScienCell) were plated into 96-well plates. After 24 h cells were treated with rhHMGB1 (Sigma Aldrich) or rat recombinant HMGB1 (generously provided by Angelika Bierhaus, Heidelberg, Germany), and TRAIL (for 24 h) or Temozolomide (for 72 h) alone or in combination, respectively. Cell survival was measured by crystal violet staining as described previously (Gdynia et al., 2007). Cell proliferation was assessed by seeding 50,000 U251 MG cells in 6 cm culture plates and treatment with rhHMGB1, followed by counting the cells in a Neubauer chamber at day 0, 2, 4 and 5.

U251MG glioma cells = experiment: Subcellular fractionation after iodine-125 labelled rhHMGB1; immunofluorescence colocalization; details: 40 nM for 24 h (FIG. 8B)
Description: U251 cells were seeded on 10 cm culture dishes. […], 4 h, 16 h and 24 h, the cells were detached carefully by incubation with cell dissociation buffer (30 min) in order to protect possible surface proteinreceptor-complexes, harvested, and subjected to subcellular fractionation using the ApoAlert Fractionation Kit as described below (the plasma membrane fraction was extracted from the cytoplasmatic fraction by a last centrifugation step of 400.000×g for 15 min at 4° C.). Successful fractionation was confirmed by western blot. Successful coupling of the HMGB1-tyrosine residues with I-125 was shown by the high radioactivity in the protein fraction of sephadex G25 gel filtration (early eluates). Fraction 4 was used for the incubation of cells with I-125-HMGB1. For radioactivity measurements cells were solubilized in 0.5M NaOH and mixed with 10 ml LSC cocktail (Ultima Gold, Perkin Elmer, Waltham Mass.). The radioactivity of each subcellular fraction was measured in a liquid scintillation counter (Packard TriCarb 2900, Meriden, Ill.) by using the Compton effect.
Enrichment of mitochondrial fractions was performed using the ApoAlert Cell Fractionation Kit (Clontech, Mountain View, Calif.) as described previously (Gdynia et al., 2008). […]

## rhHMGB1: recombinant human High Mobility Group B1 protein (Sigma Aldrich)
U251 MG cells
  generation of radical oxygen species (ROS): strong generation
Pseudo rho zero cells
  rhHMGB1-induced cell death in pseudo rho zero cells: almost completely resistant; also recorded: highly protected
U251MG glioma cells
  mitochondrial localization, co-staining with mitochondrial marker (MitoTracker): confirmed
